Residues, ends and D or L forms follow the SMILES beside them.
How the values were obtained:
collagen type I = experiment: Collagen type I immuno-staining (ICC) in cultured human dermal fibroblasts; format: cell-based; settings: peptide at 5.1 μg/ml; for % of staining occupation (collagen type I immuno-staining): human dermal fibroblasts, 72 hours incubation, sodium ascorbyl at 20 μg/ml, control 10.68 +/− 1, mean +/− SEM, 6 measures
Description: The peptide Acetyl-Val-Leu-Leu-Lys (SEQ ID NO:1)was incubated on human dermal fibroblasts cultured in vitro and the expression of the collagen type I was measured using an immunocytochemistry (ICC) method.
The human dermal fibroblasts were cultured within growth medium enriched with Foetal Calf Serum (FCS) at 10% and incubated for 2 days at 37° C. Then the growth medium was exchanged for a standard medium containing sodium ascorbyl at 5 μg/ml with FCS at 1% and with or without the Acetyl-Val-Leu-Leu-Lys (SEQ ID NO:1)peptide at 5.1 μg/ml. A positive control condition with sodium ascorbyl at 20 μg/ml was performed. Cells were incubated for 72 hours at 37° C. with the peptide. Cultured human dermal fibroblasts were fixed by acetone for 10 minutes at −20° C. and incubated for 1 hour at room temperature with a primary antibody against collagen type I [Abcam] diluted at 1/250. Fluorescein isothiocyanate (FITC) labelled secondary antibody [CliniSciences, France] was used for revelation. The obtained immuno-staining was observed using a confocal laser scanning microscope [TCS SPE, Leica, France] and quantified by an image analyzer [Quantimet Q5001W, Leica, France]. The staining occupation was evaluated. The results were presented as a mean +/−SEM (Standard Error of Mean) from 6 measures.

[1] = system: collagen type XIV gene (COL14A1); experiment: COL14A1 mRNA level by qRT-PCR in human dermal fibroblasts; format: cell-based; settings: peptide at 1.0 μg/ml; for level of COL14A1 mRNA (control = 100%): vs EEF1A1 housekeeping gene, mean +/− SEM
Description: The peptide Acetyl-Val-Leu-Leu-Lys (SEQ ID NO:1) was incubated on human dermal fibroblasts cultured in vitro and the expression of the collagen type XIV gene (COL14A1) was measured using a quantitative reverse-transcription and polymerase chain reaction (qRT-PCR) method.
(§1) The human dermal fibroblasts were cultured within growth medium enriched with FCS at 10% and incubated for 1 day at 37° C. Then the growth medium was exchanged for a standard medium without FCS but with or without the Acetyl-Val-Leu-Leu-Lys (SEQ ID NO:1) peptide at 1.0 μg/ml. Cells were then incubated for 24 hours, 48 hours or 72 hours at 37° C. before extraction of total RNA. The level of COL14A1 mRNAs in the different conditions was evaluated comparatively to the level of EEF1A1 mRNA as housekeeping gene (qRT-PCR method) for each condition.
The results were calculated through the level of COL14A1 mRNA measured in the control condition (without peptide treatment) for the different incubation times as 100% and presented as a mean+/−SEM from 3 or 5 assays in duplicate.

tropoelastin gene (ELN) = experiment: ELN mRNA level by qRT-PCR in human dermal fibroblasts; format: cell-based; settings: peptide at 1.0 μg/ml; for level of ELN mRNA (control = 100%): vs EEF1A1 housekeeping gene, mean +/− SEM
Description: The peptide Acetyl-Val-Leu-Leu-Lys (SEQ ID NO:1) was incubated on human dermal fibroblasts cultured in vitro and the expression of the tropoelastin gene (ELN) was measured using a qRT-PCR method.
as §1, with “were” for “were then”, “ELN” for “COL14A1”, “EEF1A 1” for “EEF1A1”, “condition. The results were calculated through the level of ELN mRNA measured in the control condition (without peptide treatment) as 100% and presented as a mean+/−SEM from 3 assays in duplicate.” for “condition.”

[2] = system: glutaredoxin-2 gene (GLRX2); experiment: GLRX2 mRNA level by qRT-PCR in human dermal fibroblasts; format: cell-based; settings: peptide at 1.0 μg/ml, 6 hours
Description: The peptide Acetyl-Val-Leu-Leu-Lys (SEQ ID NO:1) was incubated on human dermal fibroblasts cultured in vitro and the expression of the glutaredoxin-2 gene (GLRX2), involved in cellular anti-oxidative defenses) was measured using a qRT-PCR method.
as §1, with “FCS” for “FCS but”, “were” for “were then”, “6” for “24 hours, 48 hours or 72”, “GLRX2” for “COL14A1”, “mRNAs” for “mRNAs in the different conditions”, “HPRT1 (hypoxanthine phosphoribosyltransferase 1)” for “EEF1A1”
The results were calculated through the level of GLRX2 mRNA measured in the control condition (without peptide treatment) as 100% and presented as a mean +/−SEM from 3 assays in duplicated.

[3] = system: epithelial cells from rabbit cornea; settings: Hara et al., Exp Eye Res, 2001; cited from earlier work
injured rabbit cornea = settings: Hara et al., Exp Eye Res, 2001; cited from earlier work

Row | Molecule | % of staining occupation (collagen type I immuno-staining) (collagen type I) | effect on the level of collagen type I (in words) (collagen type I; compared with sodium ascorbyl at 20 μg/ml) | level of COL14A1 mRNA (control = 100%) ([1]; treatment duration 24 hours) | level of COL14A1 mRNA (control = 100%) ([1]; treatment duration 48 hours) | level of COL14A1 mRNA (control = 100%) ([1]; treatment duration 72 hours) | effect on the level of COL14A1 gene expression (in words) ([1]; detected after 24 hours, maintained during 3 days) | effect on the level of ELN gene expression (in words) (tropoelastin gene (ELN)) | level of ELN mRNA (control = 100%) (tropoelastin gene (ELN); treatment duration 24 hours) | level of ELN mRNA (control = 100%) (tropoelastin gene (ELN); treatment duration 48 hours) | level of ELN mRNA (control = 100%) (tropoelastin gene (ELN); treatment duration 72 hours) | effect on the level of GLRX2 gene expression (in words) [2] | level of GLRX2 mRNA (control = 100%) ([2]; vs HPRT1 housekeeping gene, mean +/− SEM) | proliferation of epithelial cells from rabbit cornea (in words) [3] | wound healing activity on injured rabbit cornea (in words) (injured rabbit cornea)
1 | CC(=O)N[C@H](C(=O)N[C@@H](CC(C)C)C(=O)N[C@@H](CC(C)C)C(=O)N[C@@H](CCCCN)C(=O)O)C(C)C [Acetyl-Val-Leu-Leu-Lys, N-Acetyl-Val-Leu-Leu-Lys-OH] (Ac-VLLK-OH) | 31.07 +/− 2.22 (**) % | significantly increased | 175 +/− 23 (*) % | 220 +/− 32 (*) % | 213 +/− 27 (*) % | specifically and significantly increased | specifically and significantly increased | 127 +/− 11 (*) % | 143 +/− 10 (*) % | 217 +/− 49 (*) % | specifically increased | 145 +/− 20 (*) % | – | –
2 | Sodium ascorbyl [reference compound] | 18.01 +/− 1.07 (**) % | – | – | – | – | – | – | – | – | – | – | – | – | –
3 | Val-Leu-Leu-His (VLLH; tetrapeptide) | – | – | – | – | – | – | – | – | – | – | – | – | stimulate proliferation | significant wound healing activity

From patent publication US8815814B2, “Cosmetic composition containing oligopeptides” (Cognis IP Management GmbH, priority 2010, dated 2014)
